# Reference: ChEMBL document CHEMBL1145469, “Lysostaphin in treatment of neonatal Staphylococcus aureus infection” (Antimicrob Agents Chemother, 2007)
# How the values were obtained:
# Rattus norvegicus = assay: Drug level in rat serum at 25 mg/kg, im; assay type: ADME, organism-based; set-up: dose 25 mg/kg, route intramuscular; details: in vivo
# Staphylococcus aureus = assay: Antibacterial activity against methicillin-sensitive Staphylococcus aureus; assay type: functional
# Serum [1] = assay: Drug level in Staphylococcus aureus infected Wistar rat pups serum at 50 mg/kg, ip; assay type: ADME, organism-based; set-up: dose 50 mg/kg, route intraperitoneal; details: in vivo
# [2] = Drug level in rat serum at 100 mg/kg, iv after 0.5 hr; assay type: ADME, organism-based; set-up: dose 100 mg/kg, route intravenous; details: read-out: Drug uptake
# [3] = Drug level in rat serum at 30 mg/kg, sc after 1 hr; assay type: ADME, organism-based; set-up: dose 30 mg/kg, route subcutaneous; details: read-out: Drug uptake
# [4] = Drug level in rat serum at 100 mg/kg, iv after 2 hrs; assay type: ADME, organism-based; set-up: dose 100 mg/kg, route intravenous; details: read-out: Drug uptake
# Serum [5] = assay: Drug level in Staphylococcus aureus infected Wistar rat pups serum at 15 mg/kg, ip; assay type: ADME, organism-based; set-up: dose 15 mg/kg, route intraperitoneal; details: in vivo
Drug uptake (Rattus norvegicus),Compound,MBC (Staphylococcus aureus),MIC (Staphylococcus aureus),Drug uptake (Serum [1]),concentration at 0.5 h [2],concentration at 1 h [3],concentration at 2 h [4],Drug uptake (Serum [5])
20.6 µg/mL,CCOc1ccc2ccccc2c1C(=O)N[C@@H]1C(=O)N2[C@@H]1SC(C)(C)[C@@H]2C(=O)O [NAFCILLIN],,,,,,,
,Cc1onc(-c2ccccc2)c1C(=O)N[C@@H]1C(=O)N2[C@@H]1SC(C)(C)[C@@H]2C(=O)O [OXACILLIN],0.25 µg/mL,0.125 µg/mL,> 125 µg/mL,,,,
,CN[C@H](CC(C)C)C(=O)N[C@H]1C(=O)N[C@@H](CC(N)=O)C(=O)N[C@H]2C(=O)N[C@H]3C(=O)N[C@H](C(=O)N[C@H](C(=O)O)c4cc(O)cc(O)c4-c4cc3ccc4O)[C@H](O)c3ccc(c(Cl)c3)Oc3cc2cc(c3O[C@@H]2O[C@H](CO)[C@@H](O)[C@H](O)[C@H]2O[C@H]2C[C@](C)(N)[C@H](O)[C@H](C)O2)Oc2ccc(cc2Cl)[C@H]1O [VANCOMYCIN],0.25 µg/mL,,,180000 ng/mL,36000 ng/mL,45000 ng/mL,> 125 µg/mL
